Laboratory results: patent US20230123334A1, “AMINO LIPID COMPOUND, PREPARATION METHOD THEREFOR, AND APPLICATION THEREOF” (SHENZHEN SHENXIN BIOTECHNOLOGY CO., LTD., priority 2020, published 2023)

Columns and labels:
HEK293 cells [1] = assay: Preliminary screening as DNA vectors, GFP transfection of HEK293 cells; format: cell-based; conditions: HEK293 cells; lipid/DOPE liposome with 75 ng plasmid DNA (psin-EGFP-IRES-Puro); number of cells expressing GFP divided by total number of nuclei (Hoechst)
Procedure, shortened: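 HEK293 cells in DMEM/10% FBS transfected with 75 ng EGFP plasmid per well complexed with amino lipid/DOPE liposomes in pH 5.6 sodium acetate. Hoechst nuclear stain added 20-24 h post-transfection, then cells cultured another 20-24 h. Confocal imaging gives GFP-positive cells as % of total nuclei.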

HEK293 cells [2] = assay: Preliminary screening as mRNA vectors, EGFP mRNA transfection of HEK293 cells; format: cell-based; conditions: HEK293 cells, 96-well plates, EGFP mRNA 50 ng per well; percentage of GFP fluorescent cells relative to total number of cells (Hoechst)
Procedure, shortened: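 HEK293 cells in DMEM plus 10% FBS transfected in 96-well format with 50 ng EGFP mRNA per well; Lipofectamine2000 served as positive control. Read-out is the percentage of GFP-fluorescent cells among total cells, counted by Hoechst nuclear stain.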

SMILES	Absolute DNA transfection efficiency in HEK293 cells (HEK293 cells [1])	Absolute mRNA transfection efficiency in HEK293 cells (HEK293 cells [2])
CCCCCCCCCCCSc1nc(NCCN2CCCCC2)nc(SCCCCCCCCCC)n1 [Compound S10S11D4]	16.7%	0.0%
CCCCCCCCCCCCN(CCCCCCCCCCCC)c1nc(NCCCCCCC)nc(NCCCN2CCN(C)CC2)n1 [N7^2N12D9]	1.9%	5.4%
CCCCCCCCCCCCN(CCCCCCCCCCCC)c1nc(NCCCCCC)nc(NCCCN2CCN(C)CC2)n1 [N6^2N12D9]	0.0%	0.0%
CCCCCCCCCCCCCCCSc1nc(NCCN2CCOCC2)nc(SCCCCCCCCCCCCCC)n1 [Compound S14S15D2]	0.1%	0.0%
CCCCCCCCCCCCCCCCCCNc1nc(NCCCCCCCC)nc(NCCN(CC)CC)n1 [Compound N8N18D7]	2.7%	9.3%
CCCCCCCCNc1nc(NCCCCCCC)nc(NCCN2CCN(C)CC2)n1 [Compound N7N8D5]	0.0%	0.0%
CCCCCCCCCCCCCCCSc1nc(NCCN(C)C)nc(SCCCCCCCCCCCCCCC)n1 [Compound S15S15D1]	1.0%	0.5%
CCCCCCCCCCCCCCCCCCNc1nc(NCCCCCCCCCCCC)nc(NCCCN2CCOCC2)n1 [Compound N12N18D8]	1.5%	0.5%
CCCCCCCCCCCCCCCCNc1nc(NCCCCCCCCCCCCC)nc(NCC2CCN(C)CC2)n1 [Compound N13N16D10]	0.0%	1.1%
CCCCCCCCCCCCCCCNc1nc(NCCCCCCCCCCC)nc(NCCN2CCOCC2)n1 [Compound N11N15D2]	0.3%	0.7%
CCCCCCCCCCCCCNc1nc(NCCCCCCCCCCCCC)nc(NCCN(C)C)n1 [Compound N13N13D1]	1.5%	0.4%
CCCCCCCCCCCCCCCNc1nc(NCCCCCCCCC)nc(NCCN2CCOCC2)n1 [Compound N9N15D2]	0.0%	0.2%
CCCCCCCCCCCCCCCCSc1nc(NCCCN(C)C)nc(SCCCCCCCC)n1 [Compound S8S16D6]	33.0%	61.0%
CCCCCCCCCCSc1nc(NCCN(C)C)nc(SCCCCCCCCCC)n1 [Compound S10S10D1]	7.8%	0.7%
CCCCCCCCCCCCCCCCNc1nc(NCCCCCCCCCCCC)nc(NCCN(CC)CC)n1 [Compound N12N16D7]	0.4%	0.3%
CCCCCCCCCCCCCCCCNc1nc(NCCCN2CCN(C)CC2)nc(N(CCCCCCCCCCCC)CCCCCCCCCCCC)n1 [N16^2N12D9]	0.5%	0.0%
CCCCCCCCCCCCCCCCNc1nc(NCCCCCCC)nc(NCCCN2CCN(C)CC2)n1 [Compound N7N16D9]	0.0%	0.0%
CCCCCCCCCCCNc1nc(NCCCCCCCCC)nc(NCC2CCN(C)CC2)n1 [Compound N9N11D10]	0.0%	0.0%
CCCCCCCCCCCCCCCCCCSc1nc(NCC2CCN(C)CC2)nc(SCCCCCCCC)n1 [Compound S8S18D10]	19.3%	59.6%
CCCCCCCCCCCCCCCCCCSc1nc(NCCN2CCCCC2)nc(SCCCCCCCCCCCCCCCC)n1 [Compound S16S18D4]	0.3%	0.3%
CCCCCCCCCCCCCCCCNc1nc(NCCCCCCCCCCCCCCCC)nc(NCCN(CC)CC)n1 [Compound N16N16D7]	0.0%	7.9%
CCCCCCCCCCCCCCCCCCNc1nc(NCCCCCCCC)nc(NCCCN2CCN(C)CC2)n1 [Compound N8N18D9]	1.2%	0.0%
CCCCCCCCCCCCCCCCSc1nc(NCCN2CCCC2)nc(SCCCCCCCCCCC)n1 [Compound S11S16D3]	6.2%	0.7%
CCCCCCCCCCCCCCCCCCNc1nc(NCCCCCCCCC)nc(NCCN(CC)CC)n1 [Compound N9N18D7]	3.0%	0.6%
